According to US10206878B2, “Lyophilized formulation of TAT-NR2B9C with acetylation scavenger” (NoNO Inc., priority 2014, dated 2019):
No end group written: not given here.

Assay: Solubility study of TAT-NR2B9C, visual analysis
Type: physicochemical
Settings: pH 6.5, 35, 50, 75 and 100 mg/mL, t=0 and t=24 hours
Description: Due to the relatively low Tg temperatures that would likely require a longer lyophilization cycle to dry, we looked at a wider range of standard bulking agents and looked to reduce the fill volume into the container closure system so that there would be a reduced volume of liquid to lyophilize. […] Samples were visually analyzed at 35, 50, 75 and 100 mg/mL. All solutions were clear at t=0 and t=24 hours. […] A wide range of quantities may be required in a vial, but 270 mg would provide a […] dose for a 100 kg patient. Assuming the target reconstitution concentration for patient administration is still 20 mg/mL (but can be from 1 mg/ml to 100 mg/ml), then a 20-mL lyophilization vial containing 270 mg of TAT-NR2B9C can be used with a reconstitution volume of 13.5 mL. Therefore, optimal volumes of liquid for lyophilization of TAT-NR2B9C in the vial would be between 2.5 mL and 10 mL.

Question: Which “solubility, visual” value (in Histidine+Trehalose) does the source give for YGRKKRRQRRRKLSSIESDV [TAT-NR2B9C] here?
Answer: clear

Question: What about the “solubility, visual” value (in Histidine) of the same sequence?
Answer: clear
